The subject of the test is LG0703-F498-PDC complex spheroid growth. Briefly: Anticancer human tumor LG0703-F498-PDC patient-derived lung adenocarcinoma cell line growth inhibition [AhR]. The note with it: for viability, T/C: stronger effect = lower value. The gist of the method:
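Spheroids combined tumor cells with HUVEC endothelial cells and human MSCs as stroma. AhR antagonists were paired with standard or investigational drugs, each dosed in half-log steps down from near clinical Cmax, or from 10 microM where Cmax was unknown.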

[1] abbreviates: curve of first compound, second compound 0.1 µM.
Setting [2] is: curve of first compound, second compound 0.316 µM.
Where [3] appears, read: curve of first compound, second compound 1 µM.
Setting [4] is: curve of first compound, second compound 3.16 µM.
The mark [5] stands for this setting: curve of first compound, second compound 10 µM.
[6] abbreviates: second compound 0.1 µM, first compound 0.0316 µM.
[7] abbreviates: second compound 0.1 µM, first compound 0.1 µM.
The mark [8] stands for this setting: second compound 0.1 µM, first compound 0.316 µM.
Where [9] appears, read: second compound 0.1 µM, first compound 1 µM.
[10] abbreviates: second compound 0.316 µM, first compound 0.0316 µM.
Setting [11] is: second compound 0.316 µM, first compound 0.1 µM.
The mark [12] stands for this setting: second compound 0.316 µM, first compound 0.316 µM.
[13] abbreviates: second compound 0.316 µM, first compound 1 µM.
Setting [14] is: second compound 1 µM, first compound 0.0316 µM.
Setting [15] is: second compound 1 µM, first compound 0.1 µM.
Setting [16] is: second compound 1 µM, first compound 0.316 µM.
Setting [17] is: second compound 1 µM, first compound 1 µM.
Setting [18] is: second compound 3.16 µM, first compound 0.0316 µM.
[19] abbreviates: second compound 3.16 µM, first compound 0.1 µM.
[20] abbreviates: second compound 3.16 µM, first compound 0.316 µM.
Where [21] appears, read: second compound 3.16 µM, first compound 1 µM.
[22] abbreviates: second compound 10 µM, first compound 0.0316 µM.
Where [23] appears, read: second compound 10 µM, first compound 0.1 µM.
Where [24] appears, read: second compound 10 µM, first compound 0.316 µM.
Setting [25] is: second compound 10 µM, first compound 1 µM.

Values joined by “and” are separate entries in the source; they are usually repeats but may differ in a detail not shown here. Identical values can stand only once.
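Further: luminescence taken as a proxy for viable cell amount.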
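Wherever viability, T/C is given: percent of DMSO vehicle control where 100% means growth equal to vehicle.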

As for `NS(=O)(=O)OCC1CC(n2ccc3c(NC4CCc5ccccc54)ncnc32)CC1O` (stereo unspecified) + Cc1cncc(-c2nc(NCCc3c[nH]c4ccccc34)c3ncn(C(C)C)c3n2)c1, the half-maximal inhibitory concentration (IC50) by setting is: under setting [1], 3930 nM; under setting [2], 2730 nM; under setting [3], 2200 nM; under setting [4], 725 nM; under setting [5], less than 31.6 nM. Further, the viability, T/C is 105% under setting [6]; 113% under setting [7]; 66.7% under setting [8]; 101% under setting [9]; 44% (second compound 0.1 µM, first compound 3.16 µM); 30.7% (second compound 0.1 µM, first compound 10 µM). Further, the viability, T/C reads like this: under setting [10], 113%; under setting [11], 97.3%; under setting [12], 53.3%; under setting [13], 97.2%; (second compound 0.316 µM, first compound 3.16 µM) 39.8%; (second compound 0.316 µM, first compound 10 µM) 28.9%. Besides, the viability, T/C by setting is: under setting [14], 111%; under setting [15], 79.7%; under setting [16], 54%; under setting [17], 106%; (second compound 1 µM, first compound 3.16 µM) 32.6%; (second compound 1 µM, first compound 10 µM) 26.2%. Moreover, the viability, T/C was 70.9% under setting [18]; 70.1% under setting [19]; 50% under setting [20]; 55.4% under setting [21]; 27.2% (second compound 3.16 µM, first compound 3.16 µM); 16.9% (second compound 3.16 µM, first compound 10 µM). The viability, T/C under setting [22] was 2.35%; the viability, T/C under setting [23] is 3.18%; the viability, T/C under setting [24] was 6.94%; the viability, T/C under setting [25] was 2.85%; the viability, T/C (second compound 10 µM, first compound 3.16 µM) is 6.79%; the viability, T/C (second compound 10 µM, first compound 10 µM) is 5.98%.

Turning to `COc1cc(Nc2ncc3c(n2)-c2ccc(Cl)cc2C(c2c(F)cccc2OC)=NC3)ccc1C(=O)O`, the viability, T/C was 87.2% and 100% and 93.8% (compound 0.0316 µM); 81% and 83.4% and 82.2% (compound 0.1 µM); 67.8% and 64.2% and 72.7% (compound 0.316 µM); 76.2% and 77.1% and 73.1% (compound 1 µM); 67% and 61% and 63.3% (compound 3.16 µM); 37.5% and 36.6% and 41.4% (compound 10 µM). Besides, the IC50 (curve of compound) is 5980 nM and 5060 nM and 6780 nM.

On to `Nc1ncn(C2CC(O)C(CO)O2)c(=O)n1` (stereo unspecified) + CC(CO)NC(=O)c1cc(-c2ccc(Cl)cc2)nn(-c2cnn(C)c2)c1=O, for which the IC50 by setting is: under setting [1], greater than 1000 nM; under setting [2], greater than 1000 nM; under setting [3], greater than 1000 nM; under setting [4], greater than 1000 nM; under setting [5], greater than 1000 nM. In addition, the viability, T/C is 85.3% (second compound 0.1 µM, first compound 0.00316 µM); 99.4% (second compound 0.1 µM, first compound 0.01 µM); 84.8% under setting [6]; 91.1% under setting [7]; 85.9% under setting [8]; 78% under setting [9]. The viability, T/C is 81.5% (second compound 0.316 µM, first compound 0.00316 µM); 91.9% (second compound 0.316 µM, first compound 0.01 µM); 82.2% under setting [10]; 87.5% under setting [11]; 79.2% under setting [12]; 76.5% under setting [13]. The viability, T/C reads like this: (second compound 1 µM, first compound 0.00316 µM) 83.5%; (second compound 1 µM, first compound 0.01 µM) 106%; under setting [14], 78.5%; under setting [15], 79.5%; under setting [16], 71.7%; under setting [17], 77.4%. Further, the viability, T/C is, setting by setting: (second compound 3.16 µM, first compound 0.00316 µM) 78.7%; (second compound 3.16 µM, first compound 0.01 µM) 80%; under setting [18], 88.4%; under setting [19], 67.9%; under setting [20], 80.5%; under setting [21], 71.8%. The viability, T/C (second compound 10 µM, first compound 0.00316 µM) was 87.4%; the viability, T/C (second compound 10 µM, first compound 0.01 µM) was 80.2%; the viability, T/C under setting [22] was 79.3%; the viability, T/C under setting [23] is 80.3%; the viability, T/C under setting [24] was 69.9%; the viability, T/C under setting [25] was 72.7%.

As to `Nc1ncn(C2CC(O)C(CO)O2)c(=O)n1` (stereo unspecified), the viability, T/C by setting is: (compound 0.00316 µM) 101% (2×) and 107%; (compound 0.01 µM) 102% (2×) and 103%; (compound 0.0316 µM) 107% and 91.4% and 87.8%; (compound 0.1 µM) 88.2% and 98.2% and 82.9%; (compound 0.316 µM) 99.3% and 80.2% and 89.1%; (compound 1 µM) 80% and 86.7% and 87.6%. Also, the half-inhibitory concentration (IC50) (curve of compound) is greater than 1000 nM.

For `CC(C)CC(NC(=O)C(Cc1ccccc1)NC(=O)c1cnccn1)B(O)O` (stereo unspecified) + Cc1ccccc1N=Nc1ccc(NC(=O)c2ccnn2C)c(C)c1, the half-inhibitory concentration (IC50) was 5.15 nM under setting [1]; 5 nM under setting [2]; 5.26 nM under setting [3]; 5 nM under setting [4]; 5.1 nM under setting [5]. Further, the viability, T/C by setting is: (second compound 0.1 µM, first compound 0.000949 µM) 101%; (second compound 0.1 µM, first compound 0.003 µM) 85.3%; (second compound 0.1 µM, first compound 0.00949 µM) 10%; (second compound 0.1 µM, first compound 0.03 µM) 0.56%; (second compound 0.1 µM, first compound 0.0949 µM) 0.28%; (second compound 0.1 µM, first compound 0.3 µM) 0.18%. The viability, T/C is, setting by setting: (second compound 0.316 µM, first compound 0.000949 µM) 95.2%; (second compound 0.316 µM, first compound 0.003 µM) 80%; (second compound 0.316 µM, first compound 0.00949 µM) 12.3%; (second compound 0.316 µM, first compound 0.03 µM) 0.81%; (second compound 0.316 µM, first compound 0.0949 µM) 0.11%; (second compound 0.316 µM, first compound 0.3 µM) 0.12%. The viability, T/C runs as follows: (second compound 1 µM, first compound 0.000949 µM) 85.1%; (second compound 1 µM, first compound 0.003 µM) 85.8%; (second compound 1 µM, first compound 0.00949 µM) 12.8%; (second compound 1 µM, first compound 0.03 µM) 0.76%; (second compound 1 µM, first compound 0.0949 µM) 0.13%; (second compound 1 µM, first compound 0.3 µM) 0.17%. The viability, T/C (second compound 3.16 µM, first compound 0.000949 µM) was 86.9%; the viability, T/C (second compound 3.16 µM, first compound 0.003 µM) was 78%; the viability, T/C (second compound 3.16 µM, first compound 0.00949 µM) is 14.8%; the viability, T/C (second compound 3.16 µM, first compound 0.03 µM) was 1.06%; the viability, T/C (second compound 3.16 µM, first compound 0.0949 µM) was 0.16%; the viability, T/C (second compound 3.16 µM, first compound 0.3 µM) was 0.29%. Further, the viability, T/C reads like this: (second compound 10 µM, first compound 0.000949 µM) 82%; (second compound 10 µM, first compound 0.003 µM) 81.3%; (second compound 10 µM, first compound 0.00949 µM) 13.5%; (second compound 10 µM, first compound 0.03 µM) 1.28%; (second compound 10 µM, first compound 0.0949 µM) 0.3%; (second compound 10 µM, first compound 0.3 µM) 0.39%.

On to `COc1cc(C2c3cc4c(cc3C(OC3OC5COC(C)OC5C(O)C3O)C3COC(=O)C23)OCO4)cc(OC)c1O` (stereo unspecified), for which the viability, T/C (compound 0.0316 µM) was 95.8% and 105% and 103%; the viability, T/C (compound 0.1 µM) is 109% and 113% and 98.3%; the viability, T/C (compound 0.316 µM) was 99.8% and 102% and 96.6%; the viability, T/C (compound 1 µM) is 86.4% and 106% and 110%; the viability, T/C (compound 3.16 µM) was 80.5% and 96.5% and 87.8%; the viability, T/C (compound 10 µM) is 64.3% and 75.6% and 70.2%. Besides, the IC50 (curve of compound) is greater than 10000 nM.

For the origin of these results see PubChem BioAssay AID1919013 (Molecular Pharmacology Branch, DTP, NCI, 2023).
